# Experimental data from patent US9951039B2, “Pyrimidines for treatment of bacterial infections” (The Hong Kong Polytechnic University, priority 2016, dated 2018).
# How the values were obtained:
# [1] = tested on: USA300 #2690 (community-associated MRSA); test: MIC against clinically isolated strain 9; assay type: cell-based, S. aureus; conditions: Staphylococcus aureus
# Procedure: (§1) Procedure of Antimicrobial susceptibility test: The MIC value of compounds was measured in the antimicrobial susceptibility test using the broth microdilution procedure in accordance with the CLSI guidelines.^21 Cation-adjusted Mueller Hinton broth (CA-MHB) was used for all the S. aureus strains in the assay. Cells in exponential phase of growth were diluted to approximately 5×10^5 cfu/mL. Stock solutions of each compound were freshly dissolved in dimethyl sulfoxide (DMSO). Then, serial dilutions of each compound in CA-MHB medium were added into 96-well microplate. The final percentage of DMSO in the assay was 1%. Control experiments were performed with 1% DMSO instead of the compound solution. After being incubated at 37° C. for 18 h, OD600 value of cells was measured on a microplate reader and the percentage of bacterial cell inhibition with respect to controls was calculated. The MIC value was defined as the lowest compound concentration at which the growth of bacteria was inhibited by ≥90%. Three independent assays were performed for each compound.
# (§2) Results: Three compounds, namely 14av_amine16, 14dv_amine16 and 14dv_amine06, were selected to be tested against nine in-house clinically isolated bacterial strains including S. aureus ATCC29247, which is an ampicillin resistant strain, S. aureus ATCC BAA-41, ATCC BAA-1717, ATCC BAA-1720, ATCC 43300 which are methicillin resistant strains and four USA300 strains, (#417, #757, #1799 and #2690), which are the predominant strain type of community-associated MRSA strains in the United States.
# [2] = tested on: FtsZ GFP fusion stain of B. subtilis 168; test: Z-ring visualization, GFP tagged FtsZ in B. subtilis 168; assay type: cell-based; conditions: 6 μM test compound, 4 hours
# Procedure: Procedure: A single colony of FtsZ GFP fusion stain of B. subtilis 168 was grown in 5 ml 2×TY medium with 35 mg/L chloramphenicol for 14 hours at 30° C. An overnight culture was then diluted to an OD600 of 0.01 by 2×TY medium containing the absence (DMSO) and presence of 6 μM test compounds and 40 μM of IPTG, it grew at 30° C. after 4 hours of incubation; the cells were pelleted and re-suspended in 300 μL PBS buffer containing 1% agarose. 10 μL suspensions were then placed on the microscopic slide. The morphology of bacterial cell was observed under a fluorescent and phase-contrast microscope at 40× magnification, using the software of Olympus FSX100® Bio Imaging Navigator to capture images.
# S. aureus FtsZ = biological target: T1, S. aureus FtsZ (Staphylococcus aureus, UniProt P0A031); test: FtsZ polymerization light scattering assay; assay type: biochemical; conditions: 30 μm of compound; FtsZ 12.5 μM, 1 mM GTP
# T1 construct: 6-histidine tag; made in house; host or cells: E. coli BL21(DE3)
# T1 sequence (P0A031 1-390): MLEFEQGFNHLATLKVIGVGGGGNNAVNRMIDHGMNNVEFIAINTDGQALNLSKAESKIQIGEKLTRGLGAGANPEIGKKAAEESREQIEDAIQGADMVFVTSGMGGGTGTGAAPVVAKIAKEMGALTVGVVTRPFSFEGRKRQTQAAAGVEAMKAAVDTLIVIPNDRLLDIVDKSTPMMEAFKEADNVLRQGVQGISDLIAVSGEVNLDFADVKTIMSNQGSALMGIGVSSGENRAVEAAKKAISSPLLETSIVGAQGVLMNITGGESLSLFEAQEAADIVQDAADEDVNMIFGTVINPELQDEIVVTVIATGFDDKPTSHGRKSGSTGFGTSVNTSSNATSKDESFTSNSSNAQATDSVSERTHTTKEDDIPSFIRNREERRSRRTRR
# Procedure: Procedure for expression and purification of S. aureus FtsZ protein: S. aureus FtsZ protein was prepared as previous reported.^16a In brief, E. coli BL21(DE3) cells, transformed with a pRSET-A-S vector carrying S. aureus FtsZ with a 6-histidine tag attached, were streaked on a nutrient agar plate containing 50 μg/mL ampicillin. After overnight incubation at 37° C., a single colony was inoculated into 5 mL of Luria-Bertani (LB) medium in the presence of 50 μg/mL ampicillin, which was then incubated at 37° C., with shaking at 250 rpm for 16 h. The overnight culture was transferred into a fresh 2×TY medium in a dilution ratio of 1:100 and 50 μg/mL ampicillin was then added, followed by incubation at 37° C. with shaking at 250 rpm. When OD600 reached 0.8, protein expression was induced with 0.4 mM isopropyl-β-D-thiogalactopyranoside (IPTG) for 4 h. […]
# Procedure: The polymerization of recombinant S. aureus FtsZ was measured using a 90° light scattering in a thermostatically (37° C.) controlled Fluorescence Spectrometer LS 50B according to previous reports.^16a,19 Both excitation and emission wavelengths were fixed to 600 nm with a slit width of 2.5 nm. […] After 8 min, the final concentration of 1 mM GTP was added at the last fraction and the increase in light scattering measured for an additional 2000 seconds. The rate and extent of polymerization were measured. […]
# [3] = tested on: S. aureus ATCC 43300 (methicillin resistant); test: MIC against clinically isolated strain 5; assay type: cell-based; conditions: Staphylococcus aureus, ATCC43300
# Procedure: as §1, §2
# [4] = tested on: S. aureus ATCC BAA-1720 (methicillin resistant); test: MIC against clinically isolated strain 3; assay type: cell-based; conditions: Staphylococcus aureus, ATCCBAA1720
# Procedure: as §1, §2
# [5] = Compound solubility observed in aqueous medium of GTPase assay; assay type: physicochemical; conditions: higher concentration (>80 μM) causes precipitation in aqueous medium
# Source text: Nonetheless, it seems very likely that compound 14av_amine16 suppresses the self-polymerization of FtsZ protein, probably via disrupting the GTPase hydrolysis activity of FtsZ protein.
structure (smiles),measurement,setting,value
"CCC(CC)c1cc(CCN2CCCN(Cc3ccc(C(F)(F)F)cc3)CC2)nc(-c2ccncc2)n1 [Compound 14av_amine16, 1-(2-(6-(pentan-3-yl)-2-(pyridin-4-yl)pyrimidin-4-yl)ethyl)-4-(4-(trifluoromethyl)benzyl)-1,4-diazepane]",MIC,[1],12 µM
same,Z-ring localization,[2],obvious mislocalization of the Z-ring
same,inhibition of FtsZ polymerization,S. aureus FtsZ,Complete inhibition
same,MIC,[3],12 µM
same,MIC,[4],12 µM
same,compound solubility,[5],poor compound solubility
